pIC50: −log10 of the molar value. Starred links: 1 amine or outer side, 2 acyl side, 3 side chain; linkers in the order of their positions; H or OH if unused. Positions of bridges follow the written chain, without caps; N, C: chain ends. Non-standard residues stand in square brackets, D forms with d. Residues, ends and D or L forms follow the SMILES beside them. Trp(5-F) = N[C@@H](Cc1c[nH]c2ccc(F)cc12)C(=O)O; mXylylene(5-F) = Fc1cc(C[*:1])cc(C[*:2])c1; X17 = O=C(CCSCc1ccc(CSCCN[*:1])cc1)[*:2]; Dip = N[C@H](C(=O)O)C(c1ccccc1)c1ccccc1; Pro(4S-NH2) = N[C@@H]1CN[C@H](C(=O)O)C1; X4 = O=C(CCSCc1cccc(CSCCN[*:1])c1)[*:2]; mXylylene = c1cc(C[*:1])cc(C[*:2])c1; X6 = O=C(Cc1ccc(CN[*:2])cc1)[*:1]; β3hT = C[C@@H](O)[C@H](N)CC(=O)O; X22 = Oc1cc(C[*:1])cc(C[*:2])c1; Aad = N[C@@H](CCCC(=O)O)C(=O)O; αMeP = C[C@@]1(C(=O)O)CCCN1; Ac3c = NC1(C(=O)O)CC1; Mpa = O=C(O)CCS
Columns and labels:
[1] = molecular target: human PCSK9 / human LDLR EGFa domain interaction (Homo sapiens (Human), UniProt Q8NBP7); test: TR-FRET assay of inhibition of the PCSK9-LDLR protein-protein interaction; assay type: binding; conditions: TR-FRET, 20 nM human PCSK9, 20 nM human LDLR EGFa domain, 2 hours room temperature; read-out: IC50
Summary of the method: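 Compounds in dose-response are mixed with 20 nM human PCSK9 (avitag-biotinylated) and 20 nM his-tagged LDLR EGFa domain, plus 5 nM each streptavidin-Ulight and Eu-anti-6×His. After 2 h at room temperature in HEPES/NaCl/CaCl2 buffer with BSA and P20, TR-FRET is read and IC50 fitted (4-parameter).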

[2] = molecular target: PCSK9 (Homo sapiens (Human), UniProt Q8NBP7); test: PCSK9 Alexa FRET Standard assay (displacement of AlexaFluor647 tagged cyclic peptide Reagent A); assay type: binding; conditions: PCSK9 Alexa FRET Standard assay, 0.5 nM PCSK9, 20 nM AF cyclic peptide Reagent A; read-out: IC50
Summary of the method: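 TR-FRET displacement: 0.5 nM biotinylated PCSK9 with 1.25 nM Strep-Eu and 20 nM AlexaFluor-tagged cyclic peptide (final) in 50 mM HEPES pH 7.4, 0.15 M NaCl, 5 mM CaCl2, 0.01% BSA, 0.01% P20, ≥2 h at room temperature. IC50 from sigmoidal fit, converted to Ki via peptide KD; falling Eu counts flagged false positives.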

human PCSK9 / human LDLR EGFa domain interaction, sequence (Q8NBP7 153-692): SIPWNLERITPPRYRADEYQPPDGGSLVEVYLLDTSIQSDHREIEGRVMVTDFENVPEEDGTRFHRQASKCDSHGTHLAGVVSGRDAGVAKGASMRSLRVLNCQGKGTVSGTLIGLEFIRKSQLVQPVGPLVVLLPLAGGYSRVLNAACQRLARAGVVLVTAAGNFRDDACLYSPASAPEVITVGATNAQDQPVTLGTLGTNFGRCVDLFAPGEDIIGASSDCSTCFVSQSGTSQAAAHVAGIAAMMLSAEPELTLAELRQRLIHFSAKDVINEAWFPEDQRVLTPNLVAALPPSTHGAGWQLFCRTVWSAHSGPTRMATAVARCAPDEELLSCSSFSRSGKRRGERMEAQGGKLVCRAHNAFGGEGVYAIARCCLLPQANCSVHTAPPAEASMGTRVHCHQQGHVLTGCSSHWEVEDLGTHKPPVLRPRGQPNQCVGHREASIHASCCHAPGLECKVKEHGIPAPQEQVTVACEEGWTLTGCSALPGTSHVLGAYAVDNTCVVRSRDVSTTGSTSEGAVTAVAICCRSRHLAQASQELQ
human PCSK9 / human LDLR EGFa domain interaction, sequence (Q8NBP7 31-152 partner): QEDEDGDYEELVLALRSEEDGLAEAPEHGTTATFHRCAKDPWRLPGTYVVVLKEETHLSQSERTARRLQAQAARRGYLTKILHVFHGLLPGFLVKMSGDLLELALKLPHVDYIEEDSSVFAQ
PCSK9, sequence (Q8NBP7 153-692): as the sequence (Q8NBP7 153-692) above

SMILES	pIC50 [1]	pIC50 [2]
COc1ccc(C[C@@H]2NC(=O)[C@H](CCC(=O)O)NC(=O)[C@@H]3C[C@H](N)CN3C(=O)[C@H](Cc3c[nH]c4ccc(F)cc34)NC(=O)[C@H](Cc3c[nH]c4ccc(F)cc34)NC(=O)[C@@H](C)NC(=O)[C@H](C)NC(=O)CCSCc3ccc(cc3)CSCCNC(=O)[C@]3(C)CCCN3C2=O)cc1 [Compound 382] (cyclo(A[dA][Trp(5-F)][Trp(5-F)][Pro(4S-NH2)]EY(Me)[αMeP][X17]))	7.00 to 10.00	7.00 to 9.96
C[C@H]1NC(=O)[C@H](CCCCN)NC(=O)CCSCc2cc(F)cc(c2)CSC[C@@H](C(N)=O)NC(=O)[C@]2(C)CCCN2C(=O)[C@H](Cc2ccc(O)cc2)NC(=O)[C@H]([C@@H](C)O)NC(=O)[C@@H]2CCCN2C(=O)[C@H](Cc2c[nH]c3ccc(F)cc23)NC(=O)[C@H](Cc2c[nH]c3ccc(F)cc23)NC1=O [Compound 042] ([Mpa]K[dA][Trp(5-F)][Trp(5-F)]PTY[αMeP]C-NH2; linker 1-10 via mXylylene(5-F))	4.30 to 4.68	4.92 to 6.00
C[C@@H](O)[C@H]1CC(=O)N[C@@H](Cc2ccc(O)cc2)C(=O)N2CCC[C@@]2(C)C(=O)N[C@H](C(N)=O)CSCc2cccc(c2)CSCCC(=O)N[C@@H](CCCCN)C(=O)NCC(=O)N[C@@H](Cc2c[nH]c3ccc(F)cc23)C(=O)N[C@@H](Cc2c[nH]c3ccc(F)cc23)C(=O)N2CCC[C@H]2C(=O)N1 [Compound 051] ([Mpa]KG[Trp(5-F)][Trp(5-F)]P[β3hT]Y[αMeP]C-NH2; linker 1-10 via mXylylene)	7.00 to 10.00	7.00 to 9.96
C[C@@]12CCCN1C(=O)[C@H](Cc1ccc(O)cc1)NC(=O)[C@H](Cc1c[nH]cn1)NC(=O)[C@H](CC(=O)O)NC(=O)[C@H](Cc1c[nH]c3ccc(F)cc13)NC(=O)[C@H](Cc1c[nH]c3ccc(F)cc13)NC(=O)CNC(=O)[C@H](CCCCN)NC(=O)CCSCc1cc(O)cc(c1)CSC[C@@H](C(N)=O)NC2=O [Compound 359] ([Mpa]KG[Trp(5-F)][Trp(5-F)]DHY[αMeP]C-NH2; linker 1-10 via X22)	7.00 to 10.00	6.00 to 7.00
C[C@H]1NC(=O)[C@H](CCCCN)NC(=O)CCSCc2cccc(c2)CSCCNC(=O)[C@]2(C)CCCN2C(=O)[C@H](C(c2ccccc2)c2ccccc2)NC(=O)[C@H](Cc2cnc[nH]2)NC(=O)[C@H](CC(=O)O)NC(=O)[C@H](Cc2c[nH]c3ccc(F)cc23)NC(=O)[C@H](Cc2c[nH]c3ccc(F)cc23)NC1=O [Compound 406] (cyclo(DH[Dip][αMeP][X4]K[dA][Trp(5-F)][Trp(5-F)]))	7.00 to 10.00	6.00 to 7.00
COc1ccc(C[C@@H]2NC(=O)[C@H](C)NC(=O)[C@@H]3CCCCNc4cc(ccn4)C[C@H](NC(=O)[C@@H](C)NC(=O)[C@H](C)NC(=O)CCSCc4cccc(c4)CSC[C@@H](C(N)=O)NC(=O)[C@]4(C)CCCN4C2=O)C(=O)N[C@@H](Cc2c[nH]c4ccc(F)cc24)C(=O)N3)cc1 [Compound 515]	7.00 to 10.00	7.00 to 9.96
COc1ccc(C[C@@H]2NC(=O)[C@H](Cc3cnc[nH]3)NC(=O)[C@H](CC(=O)O)NC(=O)[C@H](Cc3c[nH]c4ccc(F)cc34)NC(=O)[C@H](Cc3c[nH]c4ccc(F)cc34)NC(=O)[C@@H](C)NC(=O)[C@H](NC(C)=O)CCCCNC(=O)Cc3ccc(cc3)CNC(=O)CCC[C@@H](C(N)=O)NC(=O)[C@]3(C)CCCN3C2=O)cc1 [Compound 523] (Ac-[dK][dA][Trp(5-F)][Trp(5-F)]DHY(Me)[αMeP][Aad]-NH2; linker 1-9 via X6)	7.00 to 10.00	6.00 to 7.00
COc1ccc(C[C@@H]2NC(=O)[C@@H]3CC/C=C/CC[C@H](NC(=O)[C@H](Cc4c[nH]c5ccc(F)cc45)NC(=O)[C@H](Cc4c[nH]c5ccc(F)cc45)NC(=O)[C@@H](C)NC(=O)[C@H](CCCCN)NC(=O)CCSCc4cccc(c4)CSCCNC(=O)[C@]4(C)CCCN4C2=O)C(=O)N3)cc1 [Compound 493]	4.92 to 6.00	4.92 to 6.00
C[C@@]12CCCN1C(=O)[C@H](Cc1ccc(O)cc1)NC(=O)[C@H](Cc1c[nH]cn1)NC(=O)[C@H](CC(=O)O)NC(=O)[C@H](Cc1c[nH]c3ccc(F)cc13)NC(=O)[C@H](Cc1c[nH]c3ccc(F)cc13)NC(=O)CNC(=O)C1(CC1)NC(=O)CCSCc1cccc(c1)CSC[C@@H](C(N)=O)NC2=O [Compound 281] ([Mpa][Ac3c]G[Trp(5-F)][Trp(5-F)]DHY[αMeP]C-NH2; linker 1-10 via mXylylene)	7.00 to 10.00	6.00 to 7.00
C[C@@H](O)[C@@H]1NC(=O)[C@H](Cc2c[nH]c3ccc(F)cc23)NC(=O)[C@H](Cc2c[nH]c3ccc(F)cc23)NC(=O)CNC(=O)[C@H](CCCCN)NC(=O)CCSCc2cccc(c2)CSC[C@@H](C(N)=O)NC(=O)[C@@H]2CCCN2C(=O)[C@H](Cc2ccc(O)cc2)NC(=O)[C@H](Cc2c[nH]cn2)NC1=O [Compound 224] ([Mpa]KG[Trp(5-F)][Trp(5-F)]THYPC-NH2; linker 1-10 via mXylylene)	6.00 to 7.00	6.00 to 7.00
